The numbers were not newly measured in patent US20200306252A1, “COMPOSITION FOR PREVENTING AND/OR TREATING DEMENTIA” (priority 2019, published 2020), which cites them from elsewhere.

One series concerns neural cells. As to conditions: cellular experiments.
The test system of another series is β-amyloid. To be noted: cellular experiments.
The subject of a further series is patients with dementia. To be noted: clinical experiments; curcumin alone.

With `COc1cc(/C=C/C(=O)CC(=O)/C=C/c2ccc(O)c(OC)c2)ccc1O` [curcumin], the bioavailability result is reported as “poor”. The protecting neural cells result with neural cells is “effective”. In addition, in the series on β-amyloid, the “reducing β-amyloid aggregation” value was “effective”. For the same compound, the “alleviation of the symptoms of patients with dementia” value in the series with patients with dementia is “cannot effectively alleviate the symptoms”.
